Data published in patent US8580965B2, “Substituted sulfonamide compounds” (Gruenenthal GmbH, priority 2006, dated 2013).

Target: T1, human B1R receptor (bradykinin 1 receptor) (Homo sapiens, UniProt P46663)
T1 construct: host or cells: CHO K1 cells (hB1R cells)
T1 sequence (P46663 1-353): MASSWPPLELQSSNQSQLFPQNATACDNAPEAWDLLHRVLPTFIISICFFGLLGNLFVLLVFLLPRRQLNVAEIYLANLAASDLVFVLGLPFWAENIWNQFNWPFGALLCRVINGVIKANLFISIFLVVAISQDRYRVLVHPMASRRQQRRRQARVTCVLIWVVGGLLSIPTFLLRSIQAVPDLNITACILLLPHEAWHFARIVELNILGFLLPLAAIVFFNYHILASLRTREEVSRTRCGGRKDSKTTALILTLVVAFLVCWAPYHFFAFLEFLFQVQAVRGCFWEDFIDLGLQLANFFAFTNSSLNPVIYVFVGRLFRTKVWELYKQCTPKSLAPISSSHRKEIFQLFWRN
Assay: FLIPR Ca2+ assay (Fluo-4) on CHO K1 cells stably transfected with the human B1R gene; % activation and % inhibition at 10 μM
Type: cell-based
Settings: CHO-K1, test substance 10 μM; CHO K1 hB1R cells; Ca2+ inflow after 0.5 nM Lys-Des-Arg9-bradykinin; read-out: B1R antagonism, human [10 μM] % inhibition
Method: The agonistic or antagonistic action of substances can be quantified on the bradykinin receptor 1 (B1R) of the species human and rat with ectopically expressing cell lines (CHO K1 cells) and with the aid of a Ca^2+-sensitive dye (Fluo-4) using a fluorescent imaging plate reader (FLIPR). The indication in % activation is based on the Ca^2+ signal after addition of Lys-Des-Arg^9-bradykinin (0.5 nM) or Des-Arg^9-bradykinin (100 nM). Antagonists result in a suppression of the Ca^2+ influx following administration of the agonist. The % inhibition in comparison with the maximum achievable inhibition is indicated.
Functional Investigation on the Bradykinin 1 Receptor (B1R)
The agonistic or antagonistic action of substances can be determined on the bradykinin 1 receptor (B1R) of the human and rat species with the following assay. According to this assay, the Ca^2+ inflow through the channel is quantified with the aid of a Ca^2+-sensitive dyes (Fluo-4 type, Molecular Probes Europe BV, Leiden, The Netherlands) in a fluorescent imaging plate reader (FLIPR, Molecular Devices, Sunnyvale, USA).
Chinese Hamster Ovary cells (CHO K1 cells) which are stably transfected with the human B1R gene (hB1R cells, Euroscreen s.a., Gosselies, Belgium) or the B1R gene of the rat (rB1R cells, Axxam, Milan, Italy) are used. For functional investigations, these cells are plated-out on black 96-well plates with a clear base (BD Biosciences, Heidelberg, Germany) in a density of 20,000-25,000 cells/well. Overnight, the cells are incubated at 37° C. and 5% CO2 in culture medium (hB1R cells: Nutrient Mixture Ham's F12, Gibco Invitrogen GmbH, Karlsruhe, Germany; rB1R cells: D-MEM/F12, Gibco Invitrogen, Karlsruhe, Germany) with 10 vol. % FBS (foetal bovine serum, Gibco Invitrogen GmbH, Karlsruhe, Germany). On the following day, the cells are loaded with 2.13 μM Fluo-4 (Molecular Probes Europe BV, Leiden, The Netherlands) in HBSS buffer (Hank's buffered saline solution, Gibco Invitrogen GmbH, Karlsruhe, Germany) […] (Sigma-Aldrich, Taufkirchen, Germany) and 10 mM HEPES (Sigma-Aldrich, Taufkirchen, Germany) for 60 min at 37° C. The plates are subsequently washed 2× with HBSS buffer, and HBSS buffer which additionally contains 0.1% BSA (bovine serum albumin; Sigma-Aldrich, Taufkirchen, Germany), 5.6 mM glucose and 0.05% gelatine (Merck KGaA, Darmstadt, Germany) is added. After a further incubation of 20 minutes at room temperature, the plates are inserted into the FLIPR for Ca^2+ measurement. The Ca^2+-dependent fluorescence is measured here before and after addition of substances (λex=488 nm, λem=540 nm). The quantification is effected by measurement of the highest fluorescence intensity (FC, fluorescence counts) over time.
The FLIPR protocol comprises 2 additions of substance. Test substances (10 μM) are first pipetted on to the cells and the Ca^2+ inflow is compared with the control (hB1R: Lys-Des-Arg^9-bradykinin 0.5 nM; rB1R: Des-Arg^9-bradykinin 100 nM). The value in % activation based on the Ca^2+ signal after addition of Lys-Des-Arg^9-bradykinin (0.5 nM) or Des-Arg^9-bradykinin (100 nM) is obtained therefrom. After incubation for 10 minutes, 0.5 nM Lys-Des-Arg^9-bradykinin (hB1R) or 100 nM Des-Arg^9-bradykinin (rB1R) are applied and the inflow of Ca^2+ is likewise determined. Antagonists lead to a suppression of the Ca^2+ inflow. % inhibition compared with the maximum inhibition which can be achieved is calculated. The compounds show a good activity on the human and on the rat receptor. The following data were determined by way of example: […]

Question: Which inhibition at 10 µM does the source give for COc1cc(C)c(S(=O)(=O)N2CCN(CCOCC(=O)N3CCC(O)(c4cccnc4)CC3)CC2)c(C)c1C [Example 47, 1-(4′-hydroxy-3′,4′,5′,6′-tetrahydro-2′H-[3,4′]bipyridinyl-1′-yl)-2-{2-[4-(4-methoxy-2,3,6-trimethyl-phenylsulfonyl)-piperazin-1-yl]-ethoxy}-ethanone] here?
Answer: The inhibition at 10 µM was -3.95%.

Question: How did the inhibition at 10 µM turn out when COc1cc(C)c(S(=O)(=O)N2CCN(CCOCC(=O)N3CCC(O)(c4ccccn4)CC3)CC2)c(C)c1C [Example 48, 1-(4′-hydroxy-3′,4′,5′,6′-tetrahydro-2′H-[2,4′]bipyridinyl-1′-yl)-2-{2-[4-(4-methoxy-2,3,6-trimethyl-phenylsulfonyl)-piperazin-1-yl]-ethoxy}-ethanone] was run?
Answer: Its inhibition at 10 µM is -4.32%.

Question: How did the inhibition at 10 µM turn out when O=C(COCC1CCCCN1S(=O)(=O)c1ccc(Cl)cc1)N1CCC(O)(Cc2ccccc2)CC1 (stereo not drawn) [Example 53, 1-(4-benzyl-4-hydroxy-piperidin-1-yl)-2-[1-(4-chloro-phenylsulfonyl)-piperidin-2-ylmethoxy]-ethanone] was run?
Answer: The inhibition at 10 µM was -11.4%.

Question: With O=C(COC1CCN(S(=O)(=O)c2ccccc2)CC1)N1CCC(O)(c2ccccn2)CC1 [Example 54, 2-(1-phenylsulfonyl-piperidin-4-yloxy)-1-(4′-hydroxy-3′,4′,5′,6′-tetrahydro-2′H-[2,4′]bipyridinyl-1′-yl)-ethanone] as the molecule, how does the inhibition at 10 µM read?
Answer: The inhibition at 10 µM was -13.1%.

Question: How did the inhibition at 10 µM turn out when COc1cc(C)c(S(=O)(=O)N2CCCC(OCC(=O)N3CCC(O)(c4ccccn4)CC3)C2)c(C)c1C (stereo not drawn) [Example 55, 1-(4′-hydroxy-3′,4′,5′,6′-tetrahydro-2′H-[2,4′]bipyridinyl-1′-yl)-2-[1-(4-methoxy-2,3,6-trimethyl-phenylsulfonyl)-piperidin-3-yloxy]-ethanone] was run?
Answer: The inhibition at 10 µM was -13.2%.

Question: With COc1ccc(S(=O)(=O)N2CCCC2COCC(=O)N2CCC(O)(Cc3ccccc3)CC2)cc1 (stereo not drawn) [Example 57, 1-(4-benzyl-4-hydroxy-piperidin-1-yl)-2-[1-(4-methoxy-phenylsulfonyl)-pyrrolidin-2-ylmethoxy]-ethanone] as the molecule, how does the inhibition at 10 µM read?
Answer: The inhibition at 10 µM was -16.2%.

Question: For COc1ccc(S(=O)(=O)N2CCCCC2COCC(=O)N2CCC(O)(Cc3ccccc3)CC2)c(OC)c1 (stereo not drawn) [Example 60, 1-(4-benzyl-4-hydroxy-piperidin-1-yl)-2-[1-(2,4-dimethoxy-phenylsulfonyl)-piperidin-2-ylmethoxy]-ethanone], which inhibition at 10 µM is on record?
Answer: Its inhibition at 10 µM is -44%.

Question: COc1cc(C)c(S(=O)(=O)N(C)CCCC(=O)N2CCC(O)(c3cccnc3)CC2)c(C)c1 [Example 114, N-(4-(4-hydroxy-4-(pyridin-3-yl)piperidin-1-yl)-4-oxobutyl)-4-methoxy-N,2,6-trimethylphenylsulfonamide] was tested. Which inhibition at 10 µM did it give?
Answer: Its inhibition at 10 µM is 102%.

Question: For CN(CCCC(=O)N1CCC(O)(c2cccnc2)CC1)S(=O)(=O)c1ccc(Cl)cc1Cl [Example 116, 2,4-dichloro-N-(4-(4-hydroxy-4-(pyridin-3-yl)piperidin-1-yl)-4-oxobutyl)-N-methylphenylsulfonamide], which inhibition at 10 µM is on record?
Answer: The inhibition at 10 µM was 91.2%.

Question: With COc1cc(C)c(S(=O)(=O)N2CCCCC2COCCC(=O)N2CCC(O)(Cc3ccccc3)CC2)c(C)c1 (stereo not drawn) [Example 179, 1-(4-benzyl-4-hydroxypiperidin-1-yl)-3-((1-(4-methoxy-2,6-dimethylphenylsulfonyl)piperidin-2-yl)methoxy)propan-1-one] as the molecule, how does the inhibition at 10 µM read?
Answer: Its inhibition at 10 µM is 61.5%.

Question: For COc1cc(C)c(S(=O)(=O)N2CCCCC2COCCC(=O)N2CCC(O)(c3ccc(Cl)c(C(F)(F)F)c3)CC2)c(C)c1 (stereo not drawn) [Example 180, 1-(4-(4-chloro-3-(trifluoromethyl)phenyl)-4-hydroxypiperidin-1-yl)-3-((1-(4-methoxy-2,6-dimethylphenylsulfonyl)piperidin-2-yl)methoxy)propan-1-one], which inhibition at 10 µM is on record?
Answer: Its inhibition at 10 µM is 39.9%.

Question: With COc1cc(C)c(S(=O)(=O)N2CCCCC2COCCC(=O)N2CCC(O)(c3ccc(Cl)cc3)CC2)c(C)c1 (stereo not drawn) [Example 181, 1-(4-(4-chlorophenyl)-4-hydroxypiperidin-1-yl)-3-((1-(4-methoxy-2,6-dimethylphenylsulfonyl)piperidin-2-yl)methoxy)propan-1-one] as the molecule, how does the inhibition at 10 µM read?
Answer: The inhibition at 10 µM was 75.4%.

Question: With COc1cc(C)c(S(=O)(=O)N2CCCCC2COCCC(=O)N2CCC(O)(c3ccc(Br)cc3)CC2)c(C)c1 (stereo not drawn) [Example 182, 1-(4-(4-bromophenyl)-4-hydroxypiperidin-1-yl)-3-((1-(4-methoxy-2,6-dimethylphenylsulfonyl)piperidin-2-yl)methoxy)propan-1-one] as the molecule, how does the inhibition at 10 µM read?
Answer: Its inhibition at 10 µM is 80%.

Question: How did the inhibition at 10 µM turn out when COc1cc(C)c(S(=O)(=O)N2CCCCC2COCCC(=O)N2CCC(O)(c3ccccc3)CC2)c(C)c1 (stereo not drawn) [Example 183, 1-(4-hydroxy-4-phenylpiperidin-1-yl)-3-((1-(4-methoxy-2,6-dimethylphenylsulfonyl)piperidin-2-yl)methoxy)propan-1-one] was run?
Answer: Its inhibition at 10 µM is 68.2%.

Question: For COc1cc(C)c(S(=O)(=O)N2CCCC(OCCC(=O)N3CCC(O)(c4ccc(Cl)cc4)CC3)C2)c(C)c1 (stereo not drawn) [Example 184, 1-(4-(4-chlorophenyl)-4-hydroxypiperidin-1-yl)-3-(1-(4-methoxy-2,6-dimethylphenylsulfonyl)piperidin-3-yloxy)propan-1-one], which inhibition at 10 µM is on record?
Answer: Its inhibition at 10 µM is 56.1%.

Question: Which inhibition at 10 µM does the source give for COc1cc(C)c(S(=O)(=O)N2CCCC(OCCC(=O)N3CCC(O)(c4ccc(Br)cc4)CC3)C2)c(C)c1 (stereo not drawn) [Example 185, 1-(4-(4-bromophenyl)-4-hydroxypiperidin-1-yl)-3-(1-(4-methoxy-2,6-dimethylphenylsulfonyl)piperidin-3-yloxy)propan-1-one] here?
Answer: Its inhibition at 10 µM is 54.6%.

Question: With COc1cc(C)c(S(=O)(=O)N2CCC(OCCC(=O)N3CCC(O)(c4ccc(Cl)cc4)CC3)C2)c(C)c1 (stereo not drawn) [Example 186, 1-(4-(4-chlorophenyl)-4-hydroxypiperidin-1-yl)-3-(1-(4-methoxy-2,6-dimethylphenylsulfonyl)pyrrolidin-3-yloxy)propan-1-one] as the molecule, how does the inhibition at 10 µM read?
Answer: The inhibition at 10 µM was 99.8%.

Question: Which inhibition at 10 µM does the source give for COc1cc(C)c(S(=O)(=O)N2CCC(OCCC(=O)N3CCC(O)(c4ccc(Br)cc4)CC3)C2)c(C)c1 (stereo not drawn) [Example 187, 1-(4-(4-bromophenyl)-4-hydroxypiperidin-1-yl)-3-(1-(4-methoxy-2,6-dimethylphenylsulfonyl)pyrrolidin-3-yloxy)propan-1-one] here?
Answer: The inhibition at 10 µM was 99.9%.

Question: Which inhibition at 10 µM does the source give for COc1cc(C)c(S(=O)(=O)N2CCC(OCCC(=O)N3CCC(O)(c4ccccc4)CC3)C2)c(C)c1 (stereo not drawn) [Example 188, 1-(4-hydroxy-4-phenylpiperidin-1-yl)-3-(1-(4-methoxy-2,6-dimethylphenylsulfonyl)pyrrolidin-3-yloxy)propan-1-one] here?
Answer: The inhibition at 10 µM was 52.7%.

Question: COc1cc(C)c(S(=O)(=O)N2CCC(OCCC(=O)N3CCC(O)(Cc4ccccc4)CC3)C2)c(C)c1 (stereo not drawn) [Example 189, 1-(4-benzyl-4-hydroxypiperidin-1-yl)-3-(1-(4-methoxy-2,6-dimethylphenylsulfonyl)pyrrolidin-3-yloxy)propan-1-one] was tested. Which inhibition at 10 µM did it give?
Answer: Its inhibition at 10 µM is 54.2%.

Question: COc1cc(C)c(S(=O)(=O)N2CCC(OCCC(=O)N3CCC(O)(c4cccc(C(F)(F)F)c4)CC3)C2)c(C)c1 (stereo not drawn) [Example 190, 1-(4-hydroxy-4-(3-(trifluoromethyl)phenyl)piperidin-1-yl)-3-(1-(4-methoxy-2,6-dimethylphenylsulfonyl)pyrrolidin-3-yloxy)propan-1-one] was tested. Which inhibition at 10 µM did it give?
Answer: The inhibition at 10 µM was 103%.
